Assay results as given in article PMC6980356 (Bioorganic & medicinal chemistry letters, 2014).

Legend:
[1] = target: T1, hTRPV1 (Homo sapiens, UniProt Q8NER1); test: FLIPR inhibition of TRPV1 activation by capsaicin; format: cell-based; conditions: for antagonism toward capsaicin (in words): capsaicin 100 nM, hTRPV1 in CHO cells
[2] = target: T1, hTRPV1; test: hTRPV1 antagonism toward heat; format: cell-based
[3] = target: T1, hTRPV1; test: hTRPV1 antagonism toward pH activation; format: cell-based; conditions: activator pH
[4] = target: T1, hTRPV1; test: hTRPV1 antagonism toward NADA activation; format: cell-based; conditions: activator NADA
[5] = system: CCI-induced cold allodynia; test: Mouse chronic constriction injury; format: in vivo; conditions: mouse CCI model, po

T1 sequence (Q8NER1 whole entry): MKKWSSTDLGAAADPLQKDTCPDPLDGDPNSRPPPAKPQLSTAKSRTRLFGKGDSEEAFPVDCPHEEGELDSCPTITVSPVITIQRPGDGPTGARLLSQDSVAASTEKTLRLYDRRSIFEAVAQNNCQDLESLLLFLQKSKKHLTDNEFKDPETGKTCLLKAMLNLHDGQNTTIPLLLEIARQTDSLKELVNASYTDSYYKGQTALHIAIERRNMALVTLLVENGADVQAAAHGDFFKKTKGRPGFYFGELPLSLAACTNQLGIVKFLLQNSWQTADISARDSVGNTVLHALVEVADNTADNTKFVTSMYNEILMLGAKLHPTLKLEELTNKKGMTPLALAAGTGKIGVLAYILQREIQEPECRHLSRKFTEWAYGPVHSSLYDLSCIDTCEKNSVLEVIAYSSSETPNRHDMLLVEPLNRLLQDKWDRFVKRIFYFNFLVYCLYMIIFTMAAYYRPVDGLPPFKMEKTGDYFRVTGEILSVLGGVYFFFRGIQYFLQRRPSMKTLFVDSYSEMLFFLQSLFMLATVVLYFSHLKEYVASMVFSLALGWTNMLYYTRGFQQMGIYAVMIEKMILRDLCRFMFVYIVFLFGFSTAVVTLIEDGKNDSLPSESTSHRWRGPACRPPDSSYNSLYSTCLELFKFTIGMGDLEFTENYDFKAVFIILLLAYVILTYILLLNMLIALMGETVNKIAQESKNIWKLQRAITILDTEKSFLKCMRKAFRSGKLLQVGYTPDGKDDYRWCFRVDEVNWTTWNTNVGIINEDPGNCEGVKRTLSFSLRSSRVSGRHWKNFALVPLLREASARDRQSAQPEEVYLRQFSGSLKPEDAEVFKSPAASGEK

SMILES | antagonism toward capsaicin (in words) [1] | fold increase in potency compared to 8 ([1]; Ki(CAP) relative to parent 8) | further results
CC(C(=O)NCc1ccc(C(F)(F)F)nc1Cc1ccccc1)c1ccc(NS(C)(=O)=O)c(F)c1 (stereo not drawn) [Compound 35] | weak antagonist |  | 
CC(C(=O)NCc1ccc(C(F)(F)F)nc1-c1cccs1)c1ccc(NS(C)(=O)=O)c(F)c1 (stereo not drawn) [Compound 26] |  | ca. 20 fold | 
CC(C(=O)NCc1ccc(C(F)(F)F)nc1-c1ccsc1)c1ccc(NS(C)(=O)=O)c(F)c1 (stereo not drawn) [Compound 27] | potent antagonist |  | 
CC(C(=O)NCc1ccc(C(F)(F)F)nc1-c1ccco1)c1ccc(NS(C)(=O)=O)c(F)c1 (stereo not drawn) [Compound 28] | higher potency than phenyl derivative 8 |  | 
CC(C(=O)NCc1ccc(C(F)(F)F)nc1-c1ccccc1)c1ccc(NS(C)(=O)=O)c(F)c1 (stereo not drawn) [Compound 8] | reasonable antagonism |  | fold less potent than the 2-cyclohexyl derivative ([1]; Ki(CAP) relative to 2-cyclohexyl derivative): ca. 10 fold
CC(C(=O)NCc1ccc(C(F)(F)F)nc1-c1ccccc1F)c1ccc(NS(C)(=O)=O)c(F)c1 (stereo not drawn) [Compound 11] |  |  | fold reduction in potency compared to 8 ([1]; Ki(CAP) relative to parent 8): 10 fold
CC(C(=O)NCc1ccc(C(F)(F)F)nc1-c1cccc(NS(C)(=O)=O)c1)c1ccc(NS(C)(=O)=O)c(F)c1 (stereo not drawn) [Compound 17] | lack of activity |  | 
CC(C(=O)NCc1ccc(C(F)(F)F)nc1-c1ccoc1)c1ccc(NS(C)(=O)=O)c(F)c1 (stereo not drawn) [Compound 29] | higher potency than phenyl derivative 8 |  | 
Cc1cc(-c2nc(C(F)(F)F)ccc2CNC(=O)C(C)c2ccc(NS(C)(=O)=O)c(F)c2)ccc1F (stereo not drawn) [Compound 19] | retained high potencies |  | 
CC(C(=O)NCc1ccc(C(F)(F)F)nc1-c1cccc(F)c1)c1ccc(NS(C)(=O)=O)c(F)c1 (stereo not drawn) [Compound 10] |  | 5 fold | 
CC(C(=O)NCc1ccc(C(F)(F)F)nc1CCc1ccccc1)c1ccc(NS(C)(=O)=O)c(F)c1 (stereo not drawn) [Compound 36] | dramatic increase in antagonism |  | 
CC(C(=O)NCc1ccc(C(F)(F)F)nc1-n1ccnc1)c1ccc(NS(C)(=O)=O)c(F)c1 (stereo not drawn) [Compound 30] | weak antagonist |  | 

More lines, main results first:

antagonism toward capsaicin (in words) [1] | fold increase in potency compared to 8 ([1]; Ki(CAP) relative to parent 8) | SMILES | further results
 | 13 fold | CC(C(=O)NCc1ccc(C(F)(F)F)nc1-c1ccc(C(C)(C)C)cc1)c1ccc(NS(C)(=O)=O)c(F)c1 (stereo not drawn) [Compound 16] | 
 | ca. 30 fold | CC(C(=O)NCc1ccc(C(F)(F)F)nc1-c1ccc(F)c(Cl)c1)c1ccc(NS(C)(=O)=O)c(F)c1 (stereo not drawn) [Compound 18] | 
 | 2 fold | CC(C(=O)NCc1ccc(C(F)(F)F)nc1-c1ccc(N(C)C)cc1)c1ccc(NS(C)(=O)=O)c(F)c1 (stereo not drawn) [Compound 15] | 
excellent antagonism | 16 fold | CC(C(=O)NCc1ccc(C(F)(F)F)nc1-c1ccc(F)cc1)c1ccc(NS(C)(=O)=O)c(F)c1 (stereo not drawn) [Compound 9] | IC50 [2]: 25.9 nM; antagonism toward heat (in words) ([2]; activator heat): moderate antagonism; antagonism toward pH (in words) [3]: moderate antagonism; antagonism toward NADA (in words) [4]: excellent antagonism; anti-allodynic efficacy (limited efficacy) [5]: 53 % MPE
 | 9 fold | CC(C(=O)NCc1ccc(C(F)(F)F)nc1-c1ccc(Cl)cc1)c1ccc(NS(C)(=O)=O)c(F)c1 (stereo not drawn) [Compound 12] | 
 | 13 fold | CC(C(=O)NCc1ccc(C(F)(F)F)nc1-c1cccc(Cl)c1)c1ccc(NS(C)(=O)=O)c(F)c1 (stereo not drawn) [Compound 13] | 
 | 6 fold | COc1ccc(-c2nc(C(F)(F)F)ccc2CNC(=O)C(C)c2ccc(NS(C)(=O)=O)c(F)c2)cc1 (stereo not drawn) [Compound 14] | 
retained high potencies |  | CC(C(=O)NCc1ccc(C(F)(F)F)nc1-c1ccc(Cl)c(Cl)c1)c1ccc(NS(C)(=O)=O)c(F)c1 (stereo not drawn) [Compound 20] | 
